According to PubChem BioAssay AID463229 (Broad Institute, 2010):
The source made the active and inactive calls.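 Rule for the calls: active = compounds raising the signal whose fitted half-maximal concentration is at or below their top tested dose (cut at about 25 µM in these data); inconclusive = flat fit at 30 to 70% activity, or a poor fit; inactive = the rest.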

These compounds were tested on INS-1E rat beta cells, no cytokines, CellTiter-Glo ATP, 48 h (assay: ATP level change in INS-1E without cytokines, dose response, counter-screen for beta-cell apoptosis protection project, INS-1E rat cells, ATP luminescence, cherry pick (AID 463229)).

| Structure (SMILES) | AC50 |
| --- | --- |
| Cc1ccc(-c2cc(-c3ccc(C)cc3)[n+](-c3ccc(C(=O)[O-])cc3)c(-c3ccc(C)cc3)c2)cc1 | 7.24 µM |
| O=C(NC1CCCC1)c1cc(COc2ccc3ncccc3c2)on1 | 5.91 µM |
| N#Cc1ccc(NC(=O)Nc2ccc(Cl)cc2)cc1 | 6.57 µM |
| COC(=O)[C@H](CC(C)C)N(Cc1ccccc1)S(=O)(=O)N(Cc1ccc(OC)cc1)[C@@H](CC(C)C)C(=O)OC | 5.08 µM |
| CC(C)COCc1ccc(O)c2ncccc12 | 8.01 µM |
| O=C(NCC1COc2ccccc2O1)c1cccc(S(=O)(=O)NCc2ccccc2)c1 (stereo not given) | 8.8 µM |
| COc1ccc(Cn2c(SCc3cc(C)ccc3C)nc3cc(OC)c(OC)cc3c2=N)cc1 | 7.22 µM |
| Cc1nc(Nc2ccc(Cl)c(Cl)c2)sc1C(=O)Nc1ccccc1 | 9.24 µM |
| c1ccc(-c2nc(N3CCCCCC3)c3ccccc3n2)nc1 | 6.8 µM |
| Cc1[nH]c(N=Nc2ccccc2)nc1N=Nc1ccccc1 | 8.16 µM |
| N=c1ccn(CC(=O)c2ccc(-c3ccccc3)cc2)cc1 | 1.94 µM |
| Clc1ccccc1Nc1nnc(-c2ccncc2)s1 | 4.64 µM |
| COc1ccc(C)cc1Nc1n[n+](-c2ccccc2)c(-c2c(OC)ccc3ccccc23)s1 | 6.88 µM |
| CCn1c(=O)c(C(=O)Nc2nc3ccccc3[nH]2)c(O)c2ccccc21 | 6.03 µM |
| O=C(C(Cl)Cl)N1c2ccccc2OCC1c1ccccc1 (stereo not given) | 8.31 µM |
| Cc1ccc2nc(-c3ccccn3)c(Nc3ccccc3C)n2c1 | 9.99 µM |
| CCOC(=O)N1CCN(C(=O)CSCC(=O)Nc2nc(-c3ccc(-c4ccccc4)cc3)cs2)CC1 | 4.49 µM |
| c1ccc(-c2csc3ncnc(NCC4COc5ccccc5O4)c23)cc1 (stereo not given) | 2.79 µM |
| COc1ccc2nc(Nc3nc(CSc4nc5ccccc5[nH]4)cc(=O)[nH]3)nc(C)c2c1 | 7.05 µM |
| COc1cccc(COc2cc3ccccc3nc2C)c1 | 3.51 µM |
| NC1=NC[C@H](Cc2ccccc2)N1CCCCC1CCCCC1 | 6.91 µM |
| COc1ccc([N+](=O)[O-])c(S(=O)(=O)c2ccc(Cl)cc2)n1 | 7.61 µM |
| Cc1nc2ccccc2n1/N=C/c1ccc([N+](=O)[O-])s1 | 1.92 µM |
| On1onc2c3cc(-c4ccccc4)nc3ccc21 | 5.23 µM |
| COc1cnc(-c2ccccn2)nc1Oc1ccc(Cl)c2ccccc12 | 15.3 µM |
| CCCCCN=Cc1c(C)[nH]n(-c2nc3ccccc3s2)c1=O | 3.2 µM |
| N#C/C(=N\Nc1ccc(Cl)cc1)C(=O)c1ccccc1 | 2.84 µM |
| COCCN(C(=O)COC(=O)C1CCC(C(C)(C)C)CC1)c1c(N)n(Cc2ccccc2)c(=O)[nH]c1=O (stereo not given) | 2.17 µM |

| Structure (SMILES) | AC50 |
| --- | --- |
| Cc1ccc(N2C(=O)NC(=O)/C(=C\C=C\c3ccco3)C2=O)cc1C | 5.85 µM |
| C/C(=N\NC(=O)c1nnn(-c2nonc2N)c1-c1ccccc1)c1ccccc1O | 2.17 µM |
| O=S(=O)(c1ccc(NC(=S)NCc2cccnc2)cc1)N1CCCCC1 | 1.62 µM |
| Cc1cc(N/N=C/c2c(O)ccc3ccccc23)nc(-c2ccccc2O)n1 | 11.7 µM |
| NNc1nc(-c2ccccc2)cc(-c2ccccc2O)n1 | 17.7 µM |
| Cc1ccccc1C(=O)Nc1cccc(C(=O)N/N=C/c2cc(Cl)cc([N+](=O)[O-])c2O)c1 | 13.3 µM |
| Cc1ccc2nc(N(CCCN(C)C)C(=O)c3ccc(S(=O)(=O)N4CCc5ccccc5C4)cc3)sc2c1 | 6.99 µM |
| CCCCCc1cc(=O)oc2c(C(CCN3CCCC(C)C3)c3cc(OC)c(OC)c(OC)c3)c(OC)cc(OC)c12 (stereo not given) | 14 µM |
| Cc1nc2ccccc2n1-c1nc(-c2ccco2)cc(C(F)(F)F)n1 | 1.86 µM |
| Cc1nc2c3cc(F)ccc3n(Cc3ccccc3)c2s1 | > 26 µM (inactive) |
| O=C(NNC(=O)c1ccccc1OCc1ccc(F)cc1)c1ccccc1O | 13.6 µM |
| S=C(NCCCN1CCOCC1)N1CCN(c2nc(-c3ccc(Cl)cc3)cs2)CC1 | 12.9 µM |
| COc1ccc(/C=C/c2cc(-c3ccc(C)cc3)o[n+]2C)cc1 | 0.91 µM |
| C=C1[C@@H](O)[C@@H]2O[C@]3(CC[C@H](/C=C/[C@@H](C)[C@@H]4CC(C)=CC5(O[C@H](C[C@@](C)(O)C(=O)OC)CC[C@H]5O)O4)O3)CC[C@H]2O[C@@H]1[C@@H](O)C[C@H](C)[C@H]1OC2(CCCCO2)CC[C@H]1C (stereo not given in full) | < 0.195 µM |
| CCCCNc1cc(C)nc(NCc2ccccc2)n1 | 8.1 µM |
| O=C(N/N=C/c1ccc(O)cc1O)/C(=C/c1ccccc1)CCO | 6.54 µM |
| CCCCC1CCC(C(=O)N(CC(C)C)c2c(N)n(Cc3ccccc3)c(=O)[nH]c2=O)CC1 (stereo not given) | 6.87 µM |
| CCOc1ccc(CN2CCN(Cc3c[nH]c4ccccc34)CC2)cc1 | 7.75 µM |
| CCCOc1ccc(CSc2nc3ccccc3[nH]2)cc1 | 5.41 µM |
| Cc1nn(C)c(C)c1CN(Cc1nc(CCC(C)C)no1)C(C)C | 4.22 µM |
| CCOC(=O)N1CCC(NC(=O)C2CCCN(Cc3nc(-c4cccc(Cl)c4)oc3C)C2)CC1 (stereo not given) | 6.01 µM |
| COc1cccc(/C=N/NC(=O)C(=O)Nc2ccccc2OC(F)(F)C(F)F)c1O | 6.44 µM |
| Cc1ccc(NC(=O)c2ccc([N+](=O)[O-])o2)cc1S(=O)(=O)N1CCOCC1 | 14.3 µM |
| Cc1cc(C)c(CN2CCN(C(=O)Cn3cnc4c(OCc5ccccc5)ncnc43)CC2)c(C)c1 | 6.91 µM |
| O=[N+]([O-])c1cccnc1N/N=C/c1ccccc1O | 5.45 µM |
| CCCCCCCCCCCCCCCC[n+]1cccc(C(=O)N(CC)CC)c1 | 8.01 µM |
| Nc1nc(-c2ccccn2)nc(N)c1Cc1c(F)cccc1Cl | 8.86 µM |
